These results are taken from PubChem BioAssay (NCI).

Some test systems named below: SF-539 CNS; OVCAR-8 ovarian; DU-145 prostate; SW-620 colon; BT-549 breast; NCI-H226 lung; CAKI-1 renal; HT29 colon; SF-268 CNS; MOLT-4 leukemia.
Common to all, as to experiment: NCI tumour cell line growth inhibition, 48 h

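96-well plates; 48 h exposure; 5 concentrations. Endpoints by linear interpolation between flanking doses. Not reached: highest tested concentration assigned. The concentration for 50% growth inhibition is given as GI50. TGI: total growth inhibition.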 A value given as a limit tells only on which side of the number the result lay.

Take `NS(=O)(=O)c1ccc(N=Nc2c(O)[nH]c3ccc(C(=O)NCCCn4ccnc4)cc23)cc1`: the GI50 in the experiment on SF-539 CNS, in the experiment with OVCAR-8 ovarian, in the experiment with DU-145 prostate, in the experiment with SW-620 colon, in the experiment on BT-549 breast and in the experiment with NCI-H226 lung was > 25 µM in each case. For the same compound, the GI50 with CAKI-1 renal, in the experiment with HT29 colon, in the experiment on SF-268 CNS and in the experiment on MOLT-4 leukemia was > 25 µM throughout. Moreover, the TGI with SF-539 CNS, in the experiment on OVCAR-8 ovarian, with DU-145 prostate, in the experiment with SW-620 colon, in the experiment with BT-549 breast and in the experiment with NCI-H226 lung was > 25 µM each time. Further, the TGI with CAKI-1 renal, in the experiment with HT29 colon, with SF-268 CNS and in the experiment with MOLT-4 leukemia was > 25 µM throughout.

With `COc1cccc(C(=O)NNc2nc(Cl)nc(N3CCN(C(c4ccccc4)c4ccccc4)CC3)n2)c1`, the GI50 in the experiment on SF-539 CNS is 2.08 µM; in the experiment with OVCAR-8 ovarian it was 2.02 µM; with DU-145 prostate it was 4.3 µM; in the experiment on SW-620 colon, 1.9 µM; in the experiment on BT-549 breast it was 1.63 µM; in the experiment on NCI-H226 lung it was 17 µM. In addition, the GI50 in the experiment with CAKI-1 renal was 1.87 µM; in the experiment on HT29 colon it was 2.12 µM; in the experiment with SF-268 CNS, 2.07 µM; in the experiment on MOLT-4 leukemia, 2.36 µM. For the same compound, the TGI in the experiment with SF-539 CNS turned out to be 4.3 µM; in the experiment on OVCAR-8 ovarian it was 4.53 µM; in the experiment on DU-145 prostate, 15.3 µM; in the experiment with SW-620 colon it was 3.98 µM; in the experiment with BT-549 breast, 3.31 µM; with NCI-H226 lung, 38 µM. For the same compound, the TGI in the experiment on CAKI-1 renal came out at 4.31 µM; in the experiment on HT29 colon, 4.8 µM; in the experiment with SF-268 CNS, 4.73 µM; in the experiment with MOLT-4 leukemia it was 7.54 µM.

Take `CC(C)c1cnc(-c2cc(Cl)ccc2F)cc1Nc1ccncc1C(=O)NC(CO)CO`: the GI50 in the experiment with SF-539 CNS is 15 µM; in the experiment with OVCAR-8 ovarian, 14.6 µM; in the experiment with DU-145 prostate, 13.4 µM; in the experiment on SW-620 colon, 19.6 µM; in the experiment on BT-549 breast, 14.8 µM; with NCI-H226 lung, 13.6 µM. Also, the GI50 is 6.28 µM in the experiment on CAKI-1 renal, 14.6 µM with HT29 colon, 12.3 µM with SF-268 CNS and 11.7 µM with MOLT-4 leukemia. The TGI turned out to be 29.9 µM in the experiment with SF-539 CNS; 49.8 µM with OVCAR-8 ovarian; 42 µM in the experiment on DU-145 prostate; 39.5 µM in the experiment on SW-620 colon; 31.9 µM in the experiment on BT-549 breast; 34.8 µM in the experiment with NCI-H226 lung. The TGI stood at 68.7 µM in the experiment on CAKI-1 renal, 33.7 µM with HT29 colon, 33 µM in the experiment with SF-268 CNS and 39.3 µM in the experiment with MOLT-4 leukemia.

On to `CS(=O)(=O)Nc1cc(-c2ccc3ncc(C#N)c(Nc4ccc(F)c(Cl)c4)c3c2)cnc1Cl`, for which the GI50 with SF-539 CNS is 0.109 µM; with OVCAR-8 ovarian it was 0.331 µM; in the experiment on DU-145 prostate, 0.242 µM; in the experiment with SW-620 colon it was 0.107 µM; in the experiment with BT-549 breast, 0.0542 µM; with NCI-H226 lung, 0.258 µM. The GI50 is 0.258 µM with CAKI-1 renal, 0.29 µM in the experiment with HT29 colon, 0.133 µM in the experiment on SF-268 CNS and 0.0783 µM in the experiment on MOLT-4 leukemia. The TGI with SF-539 CNS is 0.79 µM; with OVCAR-8 ovarian, > 100 µM; with DU-145 prostate, > 22.1 µM; with SW-620 colon, 4.31 µM; with BT-549 breast, 0.655 µM; with NCI-H226 lung, 2.16 µM. Also, the TGI was 1.24 µM with CAKI-1 renal, 2.3 µM in the experiment with HT29 colon and 0.487 µM in the experiment on MOLT-4 leukemia.

With `CCc1ccc(Oc2c(-c3ccc(OCCc4cccc(C(F)(F)F)c4)cc3O)n[nH]c2C(F)(F)F)cc1`, the GI50 in the experiment with SF-539 CNS is 7.39 µM; with OVCAR-8 ovarian it was 5.25 µM; in the experiment on DU-145 prostate it was 2.62 µM; in the experiment with SW-620 colon it was 1.96 µM; in the experiment with BT-549 breast it was 6.17 µM; with NCI-H226 lung, 6.9 µM. Moreover, the GI50 with CAKI-1 renal is 6.79 µM; in the experiment on HT29 colon, 8.13 µM; with SF-268 CNS, 5.02 µM; in the experiment on MOLT-4 leukemia, 1.84 µM. The TGI with SF-539 CNS worked out at 14 µM; with OVCAR-8 ovarian, 11.6 µM; in the experiment with DU-145 prostate, 8.35 µM; with SW-620 colon, 7.57 µM; in the experiment with BT-549 breast it was 12.5 µM; in the experiment with NCI-H226 lung, 14.3 µM. Besides, the TGI in the experiment on CAKI-1 renal was 13.3 µM; in the experiment with HT29 colon, 14.9 µM; in the experiment on SF-268 CNS, 11 µM; in the experiment on MOLT-4 leukemia, 7.05 µM.

Turning to `CO/N=C(/C)COc1ccc2c(c1)oc(=O)c1cc(OC)ccc12`, the GI50 with SF-539 CNS, with OVCAR-8 ovarian, with DU-145 prostate, in the experiment on SW-620 colon, in the experiment with BT-549 breast and in the experiment on NCI-H226 lung was > 100 µM each time. In addition, the GI50 is 97.6 µM in the experiment on CAKI-1 renal, > 100 µM in the experiment with HT29 colon, > 100 µM in the experiment with SF-268 CNS and > 100 µM with MOLT-4 leukemia. Further, the TGI with SF-539 CNS, in the experiment on OVCAR-8 ovarian, with DU-145 prostate, in the experiment with SW-620 colon, with BT-549 breast and in the experiment with NCI-H226 lung was > 100 µM in each case. Further, the TGI in the experiment on CAKI-1 renal, with HT29 colon, in the experiment with SF-268 CNS and with MOLT-4 leukemia was > 100 µM throughout.

Take `COc1ccc2nc3cc([N+](=O)[O-])ccc3c(NCCO)c2c1`: the GI50 in the experiment with SF-539 CNS was 3.35 µM; in the experiment on OVCAR-8 ovarian, 3.15 µM; in the experiment with DU-145 prostate, 3.62 µM; in the experiment with SW-620 colon, 4.08 µM; with BT-549 breast, 2.88 µM; with NCI-H226 lung it was 3.67 µM. The GI50 with CAKI-1 renal was 10.1 µM; in the experiment on HT29 colon, 2.34 µM; in the experiment on SF-268 CNS it was 1.15 µM; in the experiment with MOLT-4 leukemia, 1.14 µM. In addition, the TGI stood at 13 µM with SF-539 CNS; 18.8 µM in the experiment on OVCAR-8 ovarian; 25.7 µM in the experiment with SW-620 colon; 7.02 µM in the experiment with BT-549 breast; 14.7 µM in the experiment on NCI-H226 lung; 30 µM in the experiment on CAKI-1 renal. The TGI in the experiment with HT29 colon came to 5.13 µM; in the experiment with SF-268 CNS, 11.5 µM; with MOLT-4 leukemia, 6.34 µM.
